According to publication PMC8217170, “Phase Ib dose-escalation study of the hypoxia-modifier Myo-inositol trispyrophosphate in patients with hepatopancreatobiliary tumors” (Nature Communications, 2021):
“And” between values parts separate entries of the source, which are not always exact repeats. Equal entries are not always repeated.

Assays:
[1] = system: target lesions of PDAC, CRLM, CCA and HCC; test: Metabolic radiological response, FDG-PET-CT, EORTC criteria; format: in vivo, human; set-up: key to EORTC response after chemotherapy / EORTC response after ITPP / RespITPP_EORTC / RespChemo_EORTC: CMR = complete metabolic response; PMR = partial metabolic response; SMD = stable metabolic disease; PMD = progressive metabolic disease; Median change in metabolic activity, EORTC: concentration or dose not given beside the values; Lesion1_pre_TLG / Lesion1_post_TLG / Lesion1_chemo_TLG / Lesion2_pre_TLG / Lesion2_post_TLG / Lesion2_chemo_TLG / Lesion3_pre_TLG / Lesion3_post_TLG / Lesion3_chemo_TLG / Lesion4_pre_TLG / Lesion4_post_TLG / Lesion4_chemo_TLG / Lesion5_pre_TLG / Lesion5_post_TLG / Lesion5_chemo_TLG: unit not given here; conditions: for EORTC response after chemotherapy: chemotherapy subsequent to ITPP; for RespITPP_EORTC / RespChemo_EORTC: EORTC
Experimental: Radiological assessment, consisting of abdominal MRI and FDG-PET-CT, was performed before ITPP administration and after the 3-week treatment course. Where possible, radiological re-evaluation was performed after 3–6 cycles of chemotherapy. Radiological responses were evaluated according to the RECIST 1.1 criteria[56] for MRI and EORTC criteria[57] for FDG-PET-CT imaging.
Then first calculate the sum of diameters (DM) and SUV-activities of radiological target lesions before ITPP (sum_pre), after ITPP (sum_post) and after subsequent chemotherapy (sum_chemo) for assessment of morphological RECIST1.1 (diameter) and metabolical EORTC (SUV activiy) responses.
Patient 1 (dropout after only 2 infusions and subsequent death due to rapid oncological progression) is excluded for radiological assessment due to no follow up imaging available.
In a second step, we calculate percent changes (PC) of diameter and SUV activity between before ITPP, after ITPP and after chemotherapy.

CEA, AFP, CA19-9 = test: Circulatory tumor-specific markers before vs after ITPP; format: in vivo, human; conditions: for Tumor marker AFP / Tumor marker CEA: individual patients
Text: Load the raw data of the tumor marker measurements, calculate fold changes (FC) and percentage changes comparing measurments per patient before and after ITPP treatment.

[2] = after chemotherapy subsequent to ITPP, 15 patients
[3] = individual patients, lesion 1, after subsequent chemotherapy
[4] = individual patients, lesion 1, post ITPP
[5] = individual patients, lesion 1, pre ITPP (baseline)
[6] = individual patients, lesion 2, after subsequent chemotherapy
[7] = individual patients, lesion 2, post ITPP
[8] = individual patients, lesion 2, pre ITPP (baseline)
[9] = individual patients, lesion 3, after subsequent chemotherapy
[10] = individual patients, lesion 3, post ITPP
[11] = individual patients, lesion 3, pre ITPP (baseline)
[12] = individual patients, lesion 4, after subsequent chemotherapy
[13] = individual patients, lesion 4, post ITPP
[14] = individual patients, lesion 4, pre ITPP (baseline)
[15] = individual patients, lesion 5, after subsequent chemotherapy
[16] = individual patients, lesion 5, post ITPP
[17] = individual patients, lesion 5, pre ITPP (baseline)
[18] = of 22 patients with elevated markers, under ITPP

O=P1(O)OC2C3OP(=O)(O)OP(=O)(O)OC3C3OP(=O)(O)OP(=O)(O)OC3C2OP(=O)(O)O1 (centres unmarked) [ITPP, Myo-inositol trispyrophosphate]
Median change in metabolic activity, EORTC ([1]; CCA, following chemotherapy): −32.39% | Median change in metabolic activity, EORTC ([1]; CCA, under ITPP monotherapy): 17.97% | Median change in metabolic activity, EORTC ([1]; CRLM, following chemotherapy): −14.64% | Median change in metabolic activity, EORTC ([1]; CRLM, under ITPP monotherapy): 40.1% | Median change in metabolic activity, EORTC ([1]; HCC, following chemotherapy): −8.47% | Median change in metabolic activity, EORTC ([1]; HCC, under ITPP monotherapy): 15.54% | Share of patients with PMR ([1]; ITPP monotherapy): 15% | Share of patients with SMD ([1]; ITPP monotherapy): 41% | Median change in metabolic activity, EORTC ([1]; PDAC, following chemotherapy): −52.19% | Median change in metabolic activity, EORTC ([1]; PDAC, under ITPP monotherapy): −3.36% | Metabolic progressions (PMD), EORTC ([1]; after ITPP monotherapy): 10 | Partial metabolic responses (PMR), EORTC ([1]; after ITPP monotherapy): four | Stable metabolic diseases (SMD), EORTC ([1]; after ITPP monotherapy): 11 | Patients with PMD, EORTC [1, 2]: 4 | Patients with PMR, EORTC [1, 2]: 4 | Patients with SMD, EORTC [1, 2]: 7 | Share of patients with PMR ([1]; after subsequent chemotherapy): 27% | Share of patients with SMD ([1]; after subsequent chemotherapy): 47% | EORTC response after ITPP ([1]; individual patients, cohort 1 (1866 mg/m2)): PMD and PMR and SMD | EORTC response after chemotherapy ([1]; individual patients, cohort 1, 1866 mg/m2): PMR | EORTC response after ITPP ([1]; individual patients, cohort 2 (3732 mg/m2)): SMD and PMR | EORTC response after chemotherapy ([1]; individual patients, cohort 2, 3732 mg/m2): SMD and PMR | EORTC response after ITPP ([1]; individual patients, cohort 3 (5600 mg/m2)): SMD and PMR | EORTC response after chemotherapy ([1]; individual patients, cohort 3, 5600 mg/m2): SMD and PMD | EORTC response after ITPP ([1]; individual patients, cohort 4 (7000 mg/m2)): PMD and SMD | EORTC response after chemotherapy ([1]; individual patients, cohort 4, 7000 mg/m2): SMD | EORTC response after ITPP ([1]; individual patients, cohort 5 (8750 mg/m2)): SMD and PMD | EORTC response after chemotherapy ([1]; individual patients, cohort 5, 8750 mg/m2): PMD | EORTC response after ITPP ([1]; individual patients, cohort 6 (10500 mg/m2)): PMD and SMD | EORTC response after chemotherapy ([1]; individual patients, cohort 6, 10500 mg/m2): PMD and PMR and SMD | EORTC response after ITPP ([1]; individual patients, cohort 7 (12390 mg/m2)): PMD and PMR | EORTC response after chemotherapy ([1]; individual patients, cohort 7, 12390 mg/m2): SMD | EORTC response after ITPP ([1]; individual patients, cohort 8 (14500 mg/m2)): PMD and SMD | EORTC response after chemotherapy ([1]; individual patients, cohort 8, 14500 mg/m2): SMD | Lesion1_chemo_SUV [1, 3]: 13.27 and 7.35 and 9.2 and 4.3 and 17.8 and 12.2 and 6.7 and 7.2 and 13.5 and 10.7 and 12.4 and 5.5 and 7.7 and 6.77 | Lesion1_chemo_TLG [1, 3]: 4678.1 and 60.2 and 158.8 and 9.1 and 331.5 and 23.3 and 13.1 and 256.8 and 487.3 and 17.2 and 3.8 and 24.1 | Lesion1_post_SUV [1, 4]: 17.32 and 8.65 and 4.69 and 14.2 and 13.2 and 10.3 and 8.4 and 9.8 and 10.7 and 12.2 and 18.4 and 13.9 and 18.7 and 7.5 and 12 and 8.8 and 12.7 and 10.8 and 45.7 and 4.25 and 11.68 and 7.7 and 10.67 and 9.79 | Lesion1_post_TLG [1, 4]: 7101.9 and 86.3 and 302.7 and 877.7 and 139.3 and 181.7 and 75 and 382.8 and 112.3 and 878.1 and 21.6 and 249.1 and 3441.2 and 63.2 and 62.4 and 4.1 and 71.4 and 2012.6 | Lesion1_pre_SUV [1, 5]: 14.29 and 12.03 and 5.25 and 9.2 and 10.8 and 9.1 and 7.6 and 8 and 8.3 and 7 and 14.1 and 9.3 and 12.4 and 9 and 13.2 and 11 and 12.04 and 21.6 and 5.32 and 11.06 and 6.36 and 11.68 and 11.22 | Lesion1_pre_TLG [1, 5]: 4372.3 and 124.4 and 1117.7 and 865.6 and 104.9 and 699.3 and 37.5 and 197.8 and 43.3 and 531.1 and 1331.5 and 11.5 and 69 and 261.2 and 492.5 and 34.8 and 58.7 and 2.3 and 148.5 and 3074.9 | Lesion2_chemo_SUV [1, 6]: 4.43 and 13.5 and 11.3 and 7.8 and 11.2 and 11 and 7 and 9.4 and 9.6 and 7.5 and 10.3 and 10.5 and 3.4 and 4.42 and 3.74 | Lesion2_chemo_TLG [1, 6]: 4.9 and 33.2 and 133.7 and 36.1 and 149.3 and 14.3 and 27.9 and 32.3 and 3.9 and 12.6 and 26.7 | Lesion2_post_SUV [1, 7]: 4.64 and 3.03 and 11.4 and 7.9 and 6.6 and 12.3 and 14 and 13.6 and 9 and 9.6 and 8.6 and 8.1 and 8.4 and 10.3 and 40.7 and 6.42 and 6.24 and 10.36 and 3.73 | Lesion2_post_TLG [1, 7]: 7.8 and 11.6 and 331.6 and 39.8 and 377.1 and 65.2 and 12.4 and 11.8 and 24.4 and 19.9 and 14.3 and 147.3 and 3.1 | Lesion2_pre_SUV [1, 8]: 3.34 and 10.83 and 7.9 and 7.2 and 3.9 and 7.6 and 11.6 and 13 and 5 and 7.8 and 5.5 and 3 and 10.2 and 13.3 and 20.8 and 5.84 and 5.77 and 11.3 and 4.77 | Lesion2_pre_TLG [1, 8]: 3.9 and 7.1 and 175.5 and 11.2 and 263.8 and 27.2 and 31.1 and 3.3 and 23.7 and 55 and 21.4 and 24.9 and 86.2 and 13.2 | Lesion3_chemo_SUV [1, 9]: 10.68 and 18.07 and 6.5 and 2.3 and 9.2 and 3.6 and 3.1 and 10.9 and 2.7 and 2.5 and 0 | Lesion3_chemo_TLG [1, 9]: 308 and 244.4 and 13.2 and 1 and 42.3 and 3.4 and 0.3 and 0 | Lesion3_post_SUV [1, 10]: 13.38 and 8.25 and 7.8 and 2.7 and 13 and 9.9 and 13.6 and 3.9 and 32.3 and 10.6 and 2.97 and 3.4 | Lesion3_post_TLG [1, 10]: 436.7 and 47.6 and 16.7 and 1.2 and 79.1 and 13.5 and 26.8 and 22.4 and 1.1 and 3.2 | Lesion3_pre_SUV [1, 11]: 12.41 and 13.89 and 10.1 and 2.3 and 3.6 and 5.8 and 13.7 and 2.6 and 10.84 and 19.9 and 10.9 and 2.7 and 7.35 | Lesion3_pre_TLG [1, 11]: 261.7 and 28.6 and 21.7 and 1 and 13.5 and 3.4 and 72.1 and 179.3 and 22.6 and 0.1 and 3.9 | Lesion4_chemo_SUV [1, 12]: 2.5 and 3.2 and 4.7 and 3.72 | Lesion4_chemo_TLG [1, 12]: 1.3 and 2.7 and 0 and 46.4 | Lesion4_post_SUV [1, 13]: 3.5 and 16.1 and 6.1 and 1.6 and 14.37 | Lesion4_post_TLG [1, 13]: 1.3 and 42.9 and 0 and 161.9 | Lesion4_pre_SUV [1, 14]: 7.6 and 11.5 and 4.2 and 8.83 and 3.9 and 13.22 | Lesion4_pre_TLG [1, 14]: 17.4 and 33.9 and 16.4 and 1.1 and 84.7 | Lesion5_chemo_SUV [1, 15]: 2 and 9.1 and 1.4 and 0 | Lesion5_chemo_TLG [1, 15]: 3.4 and 0 | Lesion5_post_SUV [1, 16]: 6.8 and 10.7 and 1.35 and 6.92 | Lesion5_post_TLG [1, 16]: 18.9 and 0 and 11.9 | Lesion5_pre_SUV [1, 17]: 7.3 and 11.5 and 6.85 and 3.5 and 3.76 | Lesion5_pre_TLG [1, 17]: 7.3 and 4.3 and 0.6 and 2.7 | RespITPP_EORTC ([1]; individual patients, metabolic response after ITPP monotherapy): SMD and PMR and PMD | RespChemo_EORTC ([1]; individual patients, metabolic response after subsequent chemotherapy following ITPP): SMD and PMD and PMR | RespITPP_EORTC ([1]; metabolic response after ITPP, per individual patient, cohort c1, tumor c2): SMD and PMR and PMD | RespChemo_EORTC ([1]; metabolic response after chemotherapy following ITPP, per individual patient, cohort c1, tumor c2): SMD and PMD and PMR | Patients with tumor markers not elevated (CEA, AFP, CA19-9; CEA, AFP, CA19-9): 5/27 | Tumor marker AFP (CEA, AFP, CA19-9; Day 1 pre (baseline before ITPP)): 1572 µg/L and 11.2 µg/L and 270600 µg/L | Tumor marker CEA (CEA, AFP, CA19-9; Day 1 pre (baseline before ITPP), ITPP cohort 2): 2.8 µg/L | Tumor marker CEA (CEA, AFP, CA19-9; Day 1 pre (baseline before ITPP), ITPP cohort 3): 169.8 µg/L | Tumor marker CEA (CEA, AFP, CA19-9; Day 1 pre (baseline before ITPP), ITPP cohort 6): 3.2 µg/L and 1 µg/L and 291.6 µg/L | Tumor marker CEA (CEA, AFP, CA19-9; Day 1 pre (baseline before ITPP), ITPP cohort 7): 2205 µg/L and 2068 µg/L | Tumor marker CEA (CEA, AFP, CA19-9; Day 1 pre (baseline before ITPP), ITPP cohort 8): 7058 µg/L | Tumor marker AFP (CEA, AFP, CA19-9; Day 3 post): 1167 µg/L and 11.2 µg/L | Tumor marker CEA (CEA, AFP, CA19-9; Day 3 post, ITPP cohort 2): 2.9 µg/L | Tumor marker CEA (CEA, AFP, CA19-9; Day 3 post, ITPP cohort 3): 165.1 µg/L | Tumor marker CEA (CEA, AFP, CA19-9; Day 3 post, ITPP cohort 6): 3.2 µg/L and 2.3 µg/L and 300.1 µg/L | Tumor marker CEA (CEA, AFP, CA19-9; Day 3 post, ITPP cohort 7): 2190 µg/L and 2209 µg/L | Tumor marker CEA (CEA, AFP, CA19-9; Day 3 post, ITPP cohort 8): 7145 µg/L | Tumor marker AFP (CEA, AFP, CA19-9; Day 9 post): 1017 µg/L and 5.1 µg/L and 204800 µg/L | Tumor marker CEA (CEA, AFP, CA19-9; Day 9 post, ITPP cohort 2): 2.9 µg/L | Tumor marker CEA (CEA, AFP, CA19-9; Day 9 post, ITPP cohort 3): 247.8 µg/L | Tumor marker CEA (CEA, AFP, CA19-9; Day 9 post, ITPP cohort 6): 4.6 µg/L and 1 µg/L and 451 µg/L | Tumor marker CEA (CEA, AFP, CA19-9; Day 9 post, ITPP cohort 7): 2055 µg/L and 3058 µg/L | Tumor marker CEA (CEA, AFP, CA19-9; Day 9 post, ITPP cohort 8): 7626 µg/L | Patients with a decrease in tumor marker levels (CEA, AFP, CA19-9; [18]): 11 | Patients with an increase in tumor marker levels (CEA, AFP, CA19-9; [18]): 11
